Values of other authors, collected in US20220401378A1, “COMPOSITIONS COMPRISING FUNCTIONAL FRAGRANCES AND CANNABIS-DERIVED COMPOUNDS” (THIS WORKS PRODUCTS LIMITED, priority 2020, published 2022).

Tested on: anxiety

SMILES	effectiveness in reducing anxiety compared with trazodone hydrochloride
C=C[C@](C)(O)CCC=C(C)C [R-(−)-linalool]	as effective as the trazodone hydrochloride in reducing anxiety
C=C[C@@](C)(O)CCC=C(C)C [S-(+)-linalool]	as effective as the trazodone hydrochloride in reducing anxiety
